Experimental data as given in patent US6472391B2, “Nitrogen-containing heterocyclic compounds” (Millennium Pharmaceuticals, Inc., priority 1996, dated 2002).
Structures can show the parent of a compound that is named as a salt.

| Structure (SMILES) | melting point [°C] |
| --- | --- |
| COc1cc2ncnc(N3CCN(C(=O)Nc4ccc([N+](=O)[O-])c([N+](=O)[O-])c4)CC3)c2cc1OC | 273 to 274 |
| Cl.Cl.S=C(NCc1cccnc1)N1CCN(c2ncnc3cccc(Cl)c23)CC1 | 150 to 152 |
| Cc1ccc2c(N3CCN(C(=S)NCc4cccnc4)CC3)ncnc2c1.Cl.Cl | 180 to 183 |
| COc1ccc2c(N3CCN(C(=S)NCc4cccnc4)CC3)ncnc2c1OC.Cl | 208 to 209 |
| Cl.Cl.S=C(NCc1cccnc1)N1CCN(c2ccnc3ccccc23)CC1 | 183 to 185 |
| Cl.Cl.S=C(NCc1cccnc1)N1CCN(c2ccnc3ccc(Cl)cc23)CC1 | 162 to 164 |
| Cl.Cl.S=C(NCc1cccnc1)N1CCN(c2ccnc3cc(Cl)ccc23)CC1 | 170 to 173 |
| COc1cc2ccnc(N3CCN(C(=S)NCc4cccnc4)CC3)c2cc1OC.Cl.Cl | 195 to 197 |
| COc1cc2ncnc(N3CCCN(C(=S)NCc4cccnc4)CC3)c2cc1OC.Cl.Cl | 177 to 183 |
| COc1cc(OC)c2ncnc(N3CCN(C(=S)NCc4cccnc4)CC3)c2c1 (as salt: hydrochloride) [Compound 382, 4-(6,8-Dimethoxy-4-quinazolinyl)-N-(3-picolyl)-1-piperazinethiocarboxamide] | 164 to 167 |
| COc1cc2ncnc(N3CCN(C(=S)Nc4ccc(C(=O)NC5CCOC5=O)cc4)CC3)c2cc1OC (racemic) [Compound 92, (dl)-N-[4-(2,3,4,5-Tetrahydro-2-oxofuran-3-ylcarbamoyl)phenyl]-4-(6,7-dimethoxy-4-quinazolinyl)-1-piperazinethiocarboxamide] | 174 to 178 |

Second part, the compound after the results:

| melting point [°C] | Structure (SMILES) |
| --- | --- |
| 140 to 145 | COc1cc2ncnc(N3CCN(C(=S)Nc4ccc5ccc6cccc7ccc4c5c67)CC3)c2cc1OC |
| 182 to 185 | COc1cc2ncnc(N3CCN(C(=O)Nc4ccc(CNCc5ccncc5)cc4)CC3)c2cc1OC.Cl.Cl.Cl |
| 121 to 123 | COc1cc2ncnc(N3CCN(C(=O)Nc4ccccc4)CC3)c2cc1OC [Compound 1, 4-(6,7-Dimethoxy-4-quinazolinyl)-N-phenyl-1-piperazinecarboxamide] |
| 230 to 232 | COc1cc2ncnc(N3CCN(C(=S)Nc4ccccc4)CC3)c2cc1OC [Compound 2, 4-(6,7-Dimethoxy-4-quinazolinyl)-N-phenyl-1-piperazinethiocarboxamide] |
| 167 to 168 | COc1cc2ncnc(N3CCN(C(=O)NCc4ccccc4)CC3)c2cc1OC [Compound 3, N-Benzyl-4-(6,7-dimethoxy-4-quinazolinyl)-1-piperazinecarboxamide] |
| 122 to 124 | COc1cc2ncnc(N3CCN(C(=O)NC(=O)c4ccccc4)CC3)c2cc1OC [Compound 4, N-Benzoyl-4-(6,7-dimethoxy-4-quinazolinyl)-1-piperazinecarboxamide] |
| 98 to 100 | COc1cc2ncnc(N3CCN(C(=O)NS(=O)(=O)c4ccccc4)CC3)c2cc1OC [Compound 5, N-Benzenesulfonyl-4-(6,7-dimethoxy-4-quinazolinyl)-1-piperazinecarboxamide] |
| 76 to 80 | COc1cc2ncnc(N3CCN(C(=S)NCCc4ccccc4)CC3)c2cc1OC [Compound 6, 4-(6,7-Dimethoxy-4-quinazolinyl)-N-(2-phenylethyl)-1-piperazinethiocarboxamide] |
| 112 to 114 | COc1cc2ncnc(N3CCN(C(=S)NCCCCc4ccccc4)CC3)c2cc1OC [Compound 7, 4-(6,7-Dimethoxy-4-quinazolinyl)-N-(4-phenylbutyl)-1-piperazinethiocarboxamide] |
| 254 to 256 | COc1cc2ncnc(N3CCN(C(=O)Nc4cccc5ccccc45)CC3)c2cc1OC [Compound 8, 4-(6,7-Dimethoxy-4-quinazolinyl)-N-(1-naphthyl)-1-piperazinecarboxamide] |
